Data published in the NIST ThermoML archive (doi:10.1016/j.jct.2011.06.007).
Numbers after ± are expanded uncertainties.

Test: activity coefficient (dimensionless); of the first substance listed, at infinite dilution; xn = mol fraction of the nth substance listed
Details: 101 kPa, Liquid, Chromatography, x1 = 0

Row | activity coefficient (318.15 K) | activity coefficient (328.15 K) | activity coefficient (338.15 K) | activity coefficient (348.15 K) | activity coefficient (358.15 K) | activity coefficient (368.15 K) | Structure (SMILES)
1 | 1.5 ± 0.1 | 1.36 ± 0.09 | 1.27 ± 0.08 | 1.18 ± 0.08 | 1.1 ± 0.07 | 1.04 ± 0.07 | CCCO [propan-1-ol] + CCCC[N+]1(C)CCCC1.N#C[B-](C#N)(C#N)C#N
2 | 10.4 ± 0.7 | 9.7 ± 0.66 | 9.18 ± 0.63 | 8.85 ± 0.6 | 8.21 ± 0.56 | 7.78 ± 0.53 | C1CCCCCC1 [cycloheptane] + CCCC[N+]1(C)CCCC1.N#C[B-](C#N)(C#N)C#N
3 | 5.87 ± 0.4 | 5.47 ± 0.37 | 5.27 ± 0.36 | 5.18 ± 0.35 | 4.88 ± 0.33 | 4.72 ± 0.32 | C1CCCC1 [cyclopentane] + CCCC[N+]1(C)CCCC1.N#C[B-](C#N)(C#N)C#N
4 | 8.42 ± 0.57 | 7.8 ± 0.53 | 7.45 ± 0.51 | 7.23 ± 0.49 | 6.75 ± 0.46 | 6.47 ± 0.44 | C1CCCCC1 [cyclohexane] + CCCC[N+]1(C)CCCC1.N#C[B-](C#N)(C#N)C#N
5 | 27.5 ± 1.9 | 25.4 ± 1.7 | 23.5 ± 1.6 | 22.5 ± 1.5 | 20.9 ± 1.4 | 20 ± 1.4 | CC(C)CC(C)(C)C [2,2,4-trimethylpentane] + CCCC[N+]1(C)CCCC1.N#C[B-](C#N)(C#N)C#N
6 | 7.68 ± 0.52 | 7.31 ± 0.5 | 7.16 ± 0.49 | 7.03 ± 0.48 | 6.57 ± 0.45 | 6.57 ± 0.45 | C=CCCCC [hex-1-ene] + CCCC[N+]1(C)CCCC1.N#C[B-](C#N)(C#N)C#N
7 | 5.78 ± 0.39 | 5.65 ± 0.39 | 5.51 ± 0.38 | 5.42 ± 0.37 | 5.33 ± 0.36 | 5.26 ± 0.36 | CCCOCCC [dipropyl ether] + CCCC[N+]1(C)CCCC1.N#C[B-](C#N)(C#N)C#N
8 | 3.49 ± 0.24 | 3.5 ± 0.24 | 3.51 ± 0.24 | 3.53 ± 0.24 | 3.54 ± 0.24 | 3.56 ± 0.24 | C#CCCCCC [1-heptyne] + CCCC[N+]1(C)CCCC1.N#C[B-](C#N)(C#N)C#N
9 | 2.15 ± 0.15 | 1.87 ± 0.13 | 1.73 ± 0.12 | 1.58 ± 0.1 | 1.39 ± 0.09 | 1.28 ± 0.08 | O [water] + CCCC[N+]1(C)CCCC1.N#C[B-](C#N)(C#N)C#N
10 | 12.1 ± 0.8 | 11.2 ± 0.8 | 10.5 ± 0.7 | 10.2 ± 0.7 | 9.56 ± 0.65 | 9.09 ± 0.62 | CCCCC [pentane] + CCCC[N+]1(C)CCCC1.N#C[B-](C#N)(C#N)C#N
11 | 15.7 ± 1.1 | 14 ± 1 | 13.2 ± 0.9 | 12.9 ± 0.9 | 12.1 ± 0.8 | 11.2 ± 0.8 | CCC(C)(C)C [2,2-dimethylbutane] + CCCC[N+]1(C)CCCC1.N#C[B-](C#N)(C#N)C#N
12 | 15.4 ± 1.1 | 14.6 ± 1 | 14.1 ± 1 | 13.4 ± 0.9 | 12.6 ± 0.9 | 12.5 ± 0.9 | C=CCCCCCC [oct-1-ene] + CCCC[N+]1(C)CCCC1.N#C[B-](C#N)(C#N)C#N
13 | 65.7 ± 4.5 | 59.5 ± 4.1 | 53.8 ± 3.7 | 50.4 ± 3.5 | 44.9 ± 3.1 | 42.1 ± 2.9 | CCCCCCCCCC [decane] + CCCC[N+]1(C)CCCC1.N#C[B-](C#N)(C#N)C#N
14 | 23 ± 1.6 | 21.5 ± 1.5 | 19.8 ± 1.4 | 19 ± 1.3 | 17.5 ± 1.2 | 16.6 ± 1.1 | CCCCCCC [heptane] + CCCC[N+]1(C)CCCC1.N#C[B-](C#N)(C#N)C#N
15 | 32.6 ± 2.2 | 30.2 ± 2.1 | 27.5 ± 1.9 | 26.2 ± 1.8 | 23.8 ± 1.6 | 22.5 ± 1.5 | CCCCCCCC [octane] + CCCC[N+]1(C)CCCC1.N#C[B-](C#N)(C#N)C#N
16 | 13.5 ± 0.9 | 12.5 ± 0.9 | 11.6 ± 0.8 | 11.2 ± 0.8 | 10.3 ± 0.7 | 9.76 ± 0.67 | C1CCCCCCC1 [cyclooctane] + CCCC[N+]1(C)CCCC1.N#C[B-](C#N)(C#N)C#N

More lines, now with the values behind:

Row | Structure (SMILES) | activity coefficient (318.15 K) | activity coefficient (328.15 K) | activity coefficient (338.15 K) | activity coefficient (348.15 K) | activity coefficient (358.15 K) | activity coefficient (368.15 K)
17 | C#CCCCCCC [1-octyne] + CCCC[N+]1(C)CCCC1.N#C[B-](C#N)(C#N)C#N | 4.93 ± 0.34 | 4.9 ± 0.33 | 4.88 ± 0.33 | 4.85 ± 0.33 | 4.81 ± 0.33 | 4.78 ± 0.33
18 | C#CCCCC [1-hexyne] + CCCC[N+]1(C)CCCC1.N#C[B-](C#N)(C#N)C#N | 2.53 ± 0.17 | 2.56 ± 0.17 | 2.58 ± 0.18 | 2.63 ± 0.18 | 2.63 ± 0.18 | 2.68 ± 0.18
19 | c1ccccc1 [benzene] + CCCC[N+]1(C)CCCC1.N#C[B-](C#N)(C#N)C#N | 0.81 ± 0.052 | 0.816 ± 0.053 | 0.836 ± 0.054 | 0.855 ± 0.055 | 0.87 ± 0.056 | 0.887 ± 0.056
20 | CCc1ccccc1 [ethylbenzene] + CCCC[N+]1(C)CCCC1.N#C[B-](C#N)(C#N)C#N | 1.56 ± 0.1 | 1.58 ± 0.1 | 1.6 ± 0.11 | 1.64 ± 0.11 | 1.66 ± 0.11 | 1.69 ± 0.11
21 | CCO [ethanol] + CCCC[N+]1(C)CCCC1.N#C[B-](C#N)(C#N)C#N | 1.29 ± 0.08 | 1.17 ± 0.07 | 1.09 ± 0.07 | 1.02 ± 0.06 | 0.95 ± 0.06 | 0.894 ± 0.057
22 | CCC(C)CC [3-methylpentane] + CCCC[N+]1(C)CCCC1.N#C[B-](C#N)(C#N)C#N | 14.9 ± 1 | 13.8 ± 0.9 | 13 ± 0.9 | 12.6 ± 0.9 | 11.8 ± 0.8 | 11.2 ± 0.8
23 | c1ccsc1 [thiophene] + CCCC[N+]1(C)CCCC1.N#C[B-](C#N)(C#N)C#N | 0.659 ± 0.045 | 0.663 ± 0.045 | 0.684 ± 0.046 | 0.702 ± 0.047 | 0.711 ± 0.047 | 0.734 ± 0.049
24 | CC(C)OC(C)C [diisopropyl ether] + CCCC[N+]1(C)CCCC1.N#C[B-](C#N)(C#N)C#N | 6.08 ± 0.41 | 5.94 ± 0.4 | 5.91 ± 0.4 | 5.82 ± 0.4 | 5.75 ± 0.39 | 5.68 ± 0.39
25 | Cc1ccccc1C [1,2-dimethylbenzene] + CCCC[N+]1(C)CCCC1.N#C[B-](C#N)(C#N)C#N | 1.34 ± 0.09 | 1.36 ± 0.09 | 1.39 ± 0.09 | 1.41 ± 0.09 | 1.43 ± 0.09 | 1.46 ± 0.1
26 | C=CCCC [1-pentene] + CCCC[N+]1(C)CCCC1.N#C[B-](C#N)(C#N)C#N | 5.58 ± 0.38 | 5.32 ± 0.36 | 5.3 ± 0.36 | 5.24 ± 0.36 | 5.01 ± 0.34 | 5.02 ± 0.34
27 | CC1CCCCC1 [methylcyclohexane] + CCCC[N+]1(C)CCCC1.N#C[B-](C#N)(C#N)C#N | 11.9 ± 0.8 | 11 ± 0.8 | 10.5 ± 0.7 | 10.1 ± 0.7 | 9.38 ± 0.64 | 8.94 ± 0.61
28 | Cc1ccc(C)cc1 [1,4-dimethylbenzene] + CCCC[N+]1(C)CCCC1.N#C[B-](C#N)(C#N)C#N | 1.46 ± 0.1 | 1.49 ± 0.1 | 1.54 ± 0.1 | 1.58 ± 0.1 | 1.59 ± 0.11 | 1.62 ± 0.11
29 | C=CCCCCC [1-heptene] + CCCC[N+]1(C)CCCC1.N#C[B-](C#N)(C#N)C#N | 10.7 ± 0.7 | 10.2 ± 0.7 | 10 ± 0.7 | 9.72 ± 0.66 | 9.09 ± 0.62 | 8.93 ± 0.61
30 | Cc1cccc(C)c1 [1,3-dimethylbenzene] + CCCC[N+]1(C)CCCC1.N#C[B-](C#N)(C#N)C#N | 1.54 ± 0.1 | 1.56 ± 0.1 | 1.59 ± 0.11 | 1.62 ± 0.11 | 1.64 ± 0.11 | 1.66 ± 0.11
31 | CCOCC [diethyl ether] + CCCC[N+]1(C)CCCC1.N#C[B-](C#N)(C#N)C#N | 2.32 ± 0.16 | 2.33 ± 0.16 | 2.34 ± 0.16 | 2.36 ± 0.16 | 2.37 ± 0.16 | 2.39 ± 0.16
32 | CCCC(C)=O [pentan-2-one] + CCCC[N+]1(C)CCCC1.N#C[B-](C#N)(C#N)C#N | 0.692 ± 0.047 | 0.701 ± 0.047 | 0.721 ± 0.048 | 0.735 ± 0.049 | 0.738 ± 0.049 | 0.755 ± 0.05
33 | CCC(=O)CC [pentan-3-one] + CCCC[N+]1(C)CCCC1.N#C[B-](C#N)(C#N)C#N | 0.65 ± 0.044 | 0.664 ± 0.045 | 0.688 ± 0.046 | 0.71 ± 0.047 | 0.719 ± 0.048 | 0.732 ± 0.048
34 | C=CCCCCCCCC [1-decene] + CCCC[N+]1(C)CCCC1.N#C[B-](C#N)(C#N)C#N | 29.7 ± 2 | 28.3 ± 1.9 | 27.1 ± 1.9 | 26.1 ± 1.8 | 23.5 ± 1.6 | 22.8 ± 1.6
35 | CC(C)=O [acetone] + CCCC[N+]1(C)CCCC1.N#C[B-](C#N)(C#N)C#N | 0.439 ± 0.035 | 0.441 ± 0.035 | 0.454 ± 0.036 | 0.464 ± 0.036 | 0.468 ± 0.037 | 0.485 ± 0.037
